Assay results from paper PMC8924238, “Mapping the sequence specificity of heterotypic amyloid interactions enables the identification of aggregation modifiers” (Nature Communications, 2022).
Entries after “also recorded” stand apart in the source; their conditions may differ. Residues, ends and D or L forms follow the SMILES beside them.

Experiments:
[1] = molecular target: T1, VQIVYK (PHF6) APR from tau (Homo sapiens, UniProt P10636); assay: Th-T aggregation kinetics of VQIVYK with sub-stoichiometric variant peptides (1:5) or CAP1; type: biochemical; conditions: Fig. 8c
T1 construct: The VQIVYK (PHF6) stretch, located in the C-terminal repeat domain of tau; made in house; host or cells: chemical solid phase peptide synthesis (no expression host)
From the text: To experimentally investigate these calculations, we synthesised a library of 90 peptides corresponding to 78% of all single amino acid substitutions of the VQIVYK APR. We excluded introduction of cysteines to avoid further complexity introduced by the formation of intermolecular disulphides and also avoided substitutions of the Tyr residue at position five, since it enables fast and accurate readout of peptide concentration. First, peptide:APR mixtures were monitored using Th-T aggregation kinetic assays. For this screen, we used sub-stoichiometric mixtures of the variant peptides against PHF6 (1:5 analogy). The reasoning behind this was that it enabled tracing of subtle differences in aggregation kinetics, while at the same time reduced the propensity of most variants to participate in self-assembly. […] For the rest, following curve fitting of the monitored Th-T curves (Figs. 5a, b and S4), we calculated and summarised fold changes of aggregation half-times (t1/2) in a volcano plot, with the negative logarithm of the p-values represented on the vertical axis (Fig. 5c). […] It should be noted, however, that changes in fluorescence intensity can also potentially reflect morphological differentiation of the produced fibrils that can affect Th-T binding. […]

[2] = system: HEK293 Tau^RD-P301S-CFP/YFP expressing biosensor cells; assay: Seeding inhibition in FRET tau biosensor cells, AD brain extracts; type: cell-based, human; conditions: CAP1 500 nM pre-treatment, extracts diluted 500x, three patients in duplicates, n = 6
From the text: Ethical approval to access and work on the human tissue samples was given by the UZ Leuven ethical committee (Leuven/Belgium; File-No. S63759). An informed consent for autopsy and scientific use of autopsy tissue with clinical information was granted from all subjects involved. Following approval, brain tissue from autopsy cases was received from UZ/KU Leuven Biobank. Sarkosyl-insoluble material was extracted from cortex tissue of three individual patients with Alzheimer’s disease (designated here as A1–A3, Supplementary Table 3), as shown previously. Briefly, the tissue was homogenised with a FastPrep (MP Biomedicals) in 10 volumes (w/v) cold buffer consisting of 10 mM Tris-HCl pH 7.4, 0.8 M NaCl, 1 mM EGTA and 10% sucrose, followed by centrifugation at 20,000 × g for 20 min at 4 °C. Universal Nuclease (Pierce) was added to the supernatant, followed by a 30 min incubation at room temperature. The sample was then brought to 1% Sarkosyl (Sigma) and incubated for 1 h at room temperature while shaking (400 rpm), followed by centrifugation at 350,000 × g for 1 h at 4 °C. The pellet was washed once, resuspended in 50 mM Tris-HCl pH 7.4 (175 mg of starting material per 100 µl) and stored at −80 °C. […]

ATTO633-monomeric tau = molecular target: T2, ATTO633-monomeric tau (Homo sapiens, UniProt P10636); assay: Microscale thermophoresis, monomeric rTau; type: binding; conditions: MST, 25 nM ATTO633-monomeric tau, CAP1 titrated from 50 μM; n = 3
T2 construct: heparin-induced aggregation of recombinant full-length tau (rTau); made in house
T2 sequence (P10636 1-441 isoform P10636-8): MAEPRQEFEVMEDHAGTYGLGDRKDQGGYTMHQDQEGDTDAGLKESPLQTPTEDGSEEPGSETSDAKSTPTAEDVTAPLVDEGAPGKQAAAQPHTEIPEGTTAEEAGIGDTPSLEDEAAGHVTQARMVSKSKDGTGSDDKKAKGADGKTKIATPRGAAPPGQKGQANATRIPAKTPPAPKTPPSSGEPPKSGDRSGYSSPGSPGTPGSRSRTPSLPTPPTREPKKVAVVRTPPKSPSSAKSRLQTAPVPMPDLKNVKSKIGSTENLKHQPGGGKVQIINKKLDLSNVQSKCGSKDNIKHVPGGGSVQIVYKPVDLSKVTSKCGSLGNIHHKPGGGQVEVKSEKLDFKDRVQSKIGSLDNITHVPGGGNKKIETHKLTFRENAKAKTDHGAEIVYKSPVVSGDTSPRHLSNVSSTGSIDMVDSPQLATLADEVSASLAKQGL
Description: MST measurements were performed to calculate binding affinities. Monomeric tau was labelled using amine reactive ATTO633 (ATTO633-NHS), following the manufacturer guidelines. Labelled tau aggregates were prepared using a 1:9 analogy of labelled to unlabelled monomeric tau, following the same aggregation protocol described for the unlabelled protein. 25 nM of ATTO633-monomeric tau or ATTO633-tau seeds were mixed against the CAP1 inhibitor, which was dissolved and titrated down starting from 50 μM, in tau buffer (HEPES 10 mM, 100 mM NaCl). Measurements were recorded on a Monolith NT automated instrument (NanoTemper Technologies GmbH, Germany) with a red-laser channel at 5% LED excitation power and medium MST power at ambient conditions. Affinity constants and experimental data fitting was performed using the NanoTemper analysis software (v2.2.4) and results were depicted as differentials between the bound and unbound state after baseline subtraction (ΔFnorm) over inhibitor concentration in the logarithmic scale.

[3] = molecular target: T3, recombinant full-length tau (tau^2N4R) (Homo sapiens, UniProt P10636); assay: Th-T kinetics of heparin-induced aggregation of recombinant full-length tau; type: biochemical; conditions: Fig. 8d
T3 construct: Recombinant full-length tau (tau^2N4R) was produced following previous established protocols; made in house
T3 sequence (P10636 1-441 isoform P10636-8): as above
Description: Recombinant full-length tau (tau^2N4R) was produced following previous established protocols. Lyophilised protein aliquots were freshly dissolved in 10 mM HEPES pH 7.4 supplemented with 100 mM NaCl at a final concentration of 10 μM. After filtration, using […] PVDF filters, the protein solution was spiked with 5 μ μM of heparin (Sigma) and aggregation was monitored by adding 25 μM of Th-T in half-area black 96-well microplates (Corning, USA). Fluorescence was measured in triplicates, using a FluoStar Omega plate reader (BMG Labtech, Germany) at 37 °C, equipped with an excitation filter at 440 nm and emission filter at 490 nm. To generate seeds, endpoint amyloid fibrils were sonicated for 15 min (30 s on, 30 s off) at 10 °C, using a Bioruptor Pico sonication device (Diagenode).

CC[C@H](C)[C@H](NC(=O)[C@H](CCC(N)=O)NC(=O)[C@H](Cc1c[nH]c2ccccc12)NC(=O)[C@H](CCCNC(=N)N)NC(=O)[C@H](CO)NC(=O)CNC(=O)[C@H](CCCNC(=N)N)NC(=O)[C@H](CCCCN)NC(=O)[C@H](Cc1ccc(O)cc1)NC(=O)[C@@H](NC(=O)[C@@H](NC(=O)[C@H](CCC(N)=O)NC(=O)[C@H](Cc1c[nH]c2ccccc12)NC(=O)[C@@H](N)CCCNC(=N)N)[C@@H](C)CC)C(C)C)C(=O)N[C@H](C(=O)N[C@@H](Cc1ccc(O)cc1)C(=O)N[C@@H](CCCCN)C(=O)N[C@@H](CCCNC(=N)N)C(=O)O)C(C)C [CAP1] (H-RWQIVYKRGSRWQIVYKR-OH; N-terminus and C-terminus assumed) was tested, and the “inhibition of self-assembly of the PHF6 hexapeptide” value [1] was “successfully inhibited; also recorded: inhibits”, the “seed propagation of AD patient brain extracts (fraction of cells containing tau inclusions)” value [2] was “significantly reduces” and the “binding to monomeric rTau” value (ATTO633-monomeric tau) was “no significant binding”. For the same molecule, the “inhibition of heparin-induced aggregation of rTau” value [3] was “successfully inhibited; also recorded: inhibits”.
